# Results: US9662318B2, “Bitopic muscarinic agonists and antagonists and methods of synthesis and use thereof” (BARRY UNIVERSITY, INC., priority 2012, dated 2017)
# Like-named read-outs stand apart in the source and are kept apart here.
# Columns and labels:
# [1] = tested on: M1-M5 muscarinic receptors; assay type: binding, human; conditions: competition experiments, all M1-M5
# M1 muscarinic receptor [2] = molecular target: T1, M1 muscarinic receptor (Homo sapiens, UniProt P11229); experiment: Dissociation of [3H]acetylcholine (full time course kinetics); assay type: binding; conditions: [3H]acetylcholine dissociation
# T1 sequence (P11229 1-460): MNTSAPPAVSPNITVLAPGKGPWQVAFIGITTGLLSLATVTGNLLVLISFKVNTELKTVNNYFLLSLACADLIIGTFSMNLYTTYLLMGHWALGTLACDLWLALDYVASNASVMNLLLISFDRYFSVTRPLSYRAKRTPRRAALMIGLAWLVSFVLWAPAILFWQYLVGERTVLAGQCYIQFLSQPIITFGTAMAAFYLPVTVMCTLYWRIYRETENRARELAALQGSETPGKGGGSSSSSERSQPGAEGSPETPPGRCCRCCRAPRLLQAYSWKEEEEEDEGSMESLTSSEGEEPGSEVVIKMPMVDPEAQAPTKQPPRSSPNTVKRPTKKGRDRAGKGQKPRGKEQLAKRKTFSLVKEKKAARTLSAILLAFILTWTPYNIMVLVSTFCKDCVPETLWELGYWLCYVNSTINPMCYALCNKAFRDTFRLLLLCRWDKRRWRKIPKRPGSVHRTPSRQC
# Description: (§1) To probe the ability of JB-D4 to allosterically modulate orthosteric ligand, its effect on the rate of orthosteric radioligand dissociation has been investigated. […] where y is the percentage of radioligand binding at time x of radioligand binding at time 0, koff1 and koff2 are rate dissociation constants and f2 is the percentage of sites with koff2 rate of dissociation. […] y is the percentage of radioligand binding at time x of radioligand binding at time 0, koff is rate dissociation constant and f is percentage of sites with koff rate of dissociation. Eq. 2 was fitted to the data from kinetic experiments. Data are means±SD from 3 independent experiments performed in quadruplicates.
# M4 muscarinic receptor = molecular target: T2, M4 muscarinic receptor (Homo sapiens, UniProt P08173); experiment: as above; assay type: binding; conditions: [3H]acetylcholine dissociation
# T2 construct: host or cells: Chinese hamster ovary cells
# T2 sequence (P08173 1-479): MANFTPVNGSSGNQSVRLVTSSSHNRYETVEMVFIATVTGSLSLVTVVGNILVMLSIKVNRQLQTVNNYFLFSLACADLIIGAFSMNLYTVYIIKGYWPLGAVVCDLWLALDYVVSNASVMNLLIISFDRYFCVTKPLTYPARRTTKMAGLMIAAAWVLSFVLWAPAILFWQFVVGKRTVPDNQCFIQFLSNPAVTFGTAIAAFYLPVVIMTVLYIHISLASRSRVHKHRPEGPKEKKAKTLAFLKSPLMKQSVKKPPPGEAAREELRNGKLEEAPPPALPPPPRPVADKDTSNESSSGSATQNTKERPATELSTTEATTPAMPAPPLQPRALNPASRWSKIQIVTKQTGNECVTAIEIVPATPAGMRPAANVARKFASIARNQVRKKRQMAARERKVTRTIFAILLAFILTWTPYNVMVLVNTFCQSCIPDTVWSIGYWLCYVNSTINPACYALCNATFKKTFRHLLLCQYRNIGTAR
# Description: as §1
# M3 muscarinic receptor [3] = molecular target: T3, M3 muscarinic receptor (Homo sapiens, UniProt P20309); experiment: as above; assay type: binding; conditions: [3H]acetylcholine dissociation
# T3 construct: host or cells: Chinese hamster ovary cells
# Description: as §1
# M5 muscarinic receptor [4] = molecular target: T4, M5 muscarinic receptor (Homo sapiens, UniProt P08912); experiment: as above; assay type: binding; conditions: [3H]acetylcholine dissociation
# T4 construct: host or cells: CHO (Chinese hamster ovary) cells, stably transfected
# T4 sequence (P08912 1-532): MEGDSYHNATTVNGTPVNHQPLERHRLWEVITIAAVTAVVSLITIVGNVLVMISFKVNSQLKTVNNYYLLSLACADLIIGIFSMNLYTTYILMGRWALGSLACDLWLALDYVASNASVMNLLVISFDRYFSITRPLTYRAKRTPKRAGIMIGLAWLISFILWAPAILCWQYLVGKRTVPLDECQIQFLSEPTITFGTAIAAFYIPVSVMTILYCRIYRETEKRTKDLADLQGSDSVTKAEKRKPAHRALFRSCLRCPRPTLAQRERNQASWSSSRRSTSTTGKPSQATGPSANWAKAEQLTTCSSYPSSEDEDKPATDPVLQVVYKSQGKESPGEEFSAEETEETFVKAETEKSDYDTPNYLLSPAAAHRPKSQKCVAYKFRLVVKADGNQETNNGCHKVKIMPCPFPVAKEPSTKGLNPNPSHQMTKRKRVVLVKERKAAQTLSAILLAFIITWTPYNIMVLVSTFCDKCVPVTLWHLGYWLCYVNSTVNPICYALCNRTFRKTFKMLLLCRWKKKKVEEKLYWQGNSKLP
# Description: as §1
# [5] = tested on: M1-M5 muscarinic receptors; experiment: Competition with [3H]NMS, statements over all subtypes; assay type: binding, human; conditions: competition experiments, all M1-M5
# M5 muscarinic receptor [6] = molecular target: T4, M5 muscarinic receptor; experiment: Competition with [3H]NMS (equilibrium binding, CHO membranes); conditions: for IC50: competition with [^3H]NMS
# Experimental: All radioligand binding experiments were optimized and carried out as described earlier. Briefly, membranes were incubated in 96-well plates at 30° C. in the incubation medium described. […] Dissociation was initiated by addition of atropine to final concentration of 5 Tested ligands in final concentration of 100 μM were added concurrently with atropine. Incubations were terminated by filtration through Whatman GF/C glass fiber filters (Whatman) using a Brandel cell harvester (Brandel, Gaithersburg, Md., USA). Filters were dried in vacuum for 1 h while heated at 80° C. and then solid scintillator Meltilex A was melted on filters (105° C., 90 s) using a hot plate. The filters were cooled and counted in Wallac Microbeta scintillation counter.
# Inhibition constant KI was calculated as: […]
# M3 muscarinic receptor [7] = molecular target: T3, M3 muscarinic receptor; experiment: Accumulation of inositol phosphates in CHO cells; assay type: cell-based; conditions: ligand 0.1 mM, no carbachol
# Experimental: Chinese hamster ovary cells stably transfected with the genes of human variants of muscarinic receptors were purchased from Missouri S&T cDNA Resource Center (Rolla, Mo., USA). […] Cells were grown to confluency in 75 cm^2 flasks in Dulbecco's modified Eagle's medium supplemented with 10% fetal bovine serum and 2 million of cells were subcultured to 100 mm Petri dishes. Medium was supplemented with 5 mM butyrate for the last 24 hours of cultivation to increase receptor expression.
# Inositolphosphates formation was determined in cells pre-labeled overnight by 0.5 μM [^3H]myo-inositol in 0.3 mL of DMEM (3 μCi/ml) at 37° C. […] Incubation was stopped by removal of incubation buffer and addition 0.2 mL 20% trichloracetic acid (TCA). After 1 h incubation at 4° C., 100 μL, of TCA extracts were taken for measurement. Rest of the TCA was removed, and TCA precipitates were washed with 200 μL TCA and dissolved in 200 μL of 1 M NaOH. After 1 h incubation at 4° C., 100 μL, of NaOH lysates were taken for measurement. Radioactivity in TCA extracts and NaOH lysates were determined by liquid scintillation counting. The rate of inositolphosphates accumulation was calculated as a percentage of the soluble (released) inositolphosphates from the total incorporated radioactivity (sum of radioactivity in NaOH lysates and TCA extracts).
# EC50 values are expressed as negative logarithms and EMAX values as folds over basal, Table 7.
# M1 muscarinic receptor [8] = molecular target: T1, M1 muscarinic receptor; experiment: biochemical; assay type: binding; conditions: competition with [^3H]QNB
# T3 sequence (P20309 whole entry): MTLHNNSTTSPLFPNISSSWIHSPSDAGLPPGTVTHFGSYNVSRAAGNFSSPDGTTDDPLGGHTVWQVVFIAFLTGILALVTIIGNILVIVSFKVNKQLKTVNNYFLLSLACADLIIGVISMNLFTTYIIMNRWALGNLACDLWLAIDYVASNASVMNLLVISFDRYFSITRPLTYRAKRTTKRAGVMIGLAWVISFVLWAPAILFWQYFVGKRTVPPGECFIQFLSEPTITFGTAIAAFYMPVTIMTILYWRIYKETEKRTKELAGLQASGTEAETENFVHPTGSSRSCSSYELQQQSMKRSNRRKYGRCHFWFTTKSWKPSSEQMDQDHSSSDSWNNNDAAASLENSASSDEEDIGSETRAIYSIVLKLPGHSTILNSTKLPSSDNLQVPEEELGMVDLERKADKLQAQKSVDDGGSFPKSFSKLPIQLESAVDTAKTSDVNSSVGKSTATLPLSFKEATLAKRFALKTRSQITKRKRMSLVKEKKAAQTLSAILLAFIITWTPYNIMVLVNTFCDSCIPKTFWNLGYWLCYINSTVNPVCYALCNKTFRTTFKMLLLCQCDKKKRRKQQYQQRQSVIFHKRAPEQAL
structure (smiles),measurement,setting,value
"CCCCOc1ccc(C(=O)OCC[N+]2(C)CCCCC2)cc1.[I-] [JB-D4, 2-(N-piperidineethyl) p-butoxybenzoate N-methyl iodide]",inhibition of QNB binding,[1],fully inhibit
same,f,"M1 muscarinic receptor [2]; +0.1 mM JB-D4, M1",90 ± 3%
same,koff,"M1 muscarinic receptor [2]; +0.1 mM JB-D4, M1",0.00317 s⁻¹
same,f,"M1 muscarinic receptor [2]; +1 mM JB-D4, M1",88 ± 3%
same,koff,"M1 muscarinic receptor [2]; +1 mM JB-D4, M1",0.00183 s⁻¹
same,f,"M4 muscarinic receptor; +0.1 mM JB-D4, M4",81 ± 4%
same,koff,"M4 muscarinic receptor; +0.1 mM JB-D4, M4",0.003 s⁻¹
same,f,"M4 muscarinic receptor; +1 mM JB-D4, M4",86 ± 3%
same,koff,"M4 muscarinic receptor; +1 mM JB-D4, M4",0.000817 s⁻¹
same,f,"M3 muscarinic receptor [3]; +0.1 mM JB-D4, M3",84 ± 3%
same,koff,"M3 muscarinic receptor [3]; +0.1 mM JB-D4, M3, read-out: koff (converted)",0.00317 s⁻¹
same,f,"M3 muscarinic receptor [3]; +1 mM JB-D4, M3",82 ± 3%
same,koff,"M3 muscarinic receptor [3]; +1 mM JB-D4, M3",0.0014 ± 0.00012 s⁻¹
same,koff,"M3 muscarinic receptor [3]; +1 mM JB-D4, M3, read-out: koff (converted)",0.0014 s⁻¹
same,f,"M5 muscarinic receptor [4]; +0.1 mM JB-D4, M5",81 ± 3%
same,koff,"M5 muscarinic receptor [4]; +0.1 mM JB-D4, M5, read-out: koff (converted)",0.000633 s⁻¹
same,f,"M5 muscarinic receptor [4]; +1 mM JB-D4, M5",81 ± 3%
same,koff,"M5 muscarinic receptor [4]; +1 mM JB-D4, M5",0.00055 ± 8.3e-05 s⁻¹
same,koff,"M5 muscarinic receptor [4]; +1 mM JB-D4, M5, read-out: koff (converted)",0.00055 s⁻¹
same,inhibition of [^3H]NMS binding,[5],fully inhibit
same,IC50,"M5 muscarinic receptor [6]; M5, average of 3, read-out: avg IC50",12.5 µM
same,IC50,"M5 muscarinic receptor [6]; M5, experiment 1, read-out: IC50—1",12.5 µM
same,IC50,"M5 muscarinic receptor [6]; M5, experiment 2, read-out: IC50—2",11.2 µM
same,IC50,"M5 muscarinic receptor [6]; M5, experiment 3, read-out: IC50—3",13.7 µM
same,Ki,M5 muscarinic receptor [6]; read-out: KI,2.88 µM
same,Effect of ligands on basal activity (accumulation of inositol phosphates as percent of accumulation in the absence of the ligand),M3 muscarinic receptor [7],102 ± 2%
same,Ki,M1 muscarinic receptor [8]; M1,1.04 µM
same,IC50,"M1 muscarinic receptor [8]; M1, average of 3, read-out: avg IC50",8.78 µM
same,IC50,"M1 muscarinic receptor [8]; M1, experiment 1, read-out: IC50—1",8.72 µM
same,IC50,"M1 muscarinic receptor [8]; M1, experiment 2, read-out: IC50—2",9.42 µM
same,IC50,"M1 muscarinic receptor [8]; M1, experiment 3, read-out: IC50—3",8.19 µM
